ChEMBL document CHEMBL3616396, “Integrated kinetic studies and computational analysis on naphthyl chalcones as mushroom tyrosinase inhibitors” (Bioorg Med Chem Lett, 2015)
The source made the active and inactive calls. The rule behind the calls is not given here.

Legend:
[1] = target: T1, Tyrosinase (Agaricus bisporus) (UniProt O42713); assay: Competitive inhibition of mushroom tyrosinase assessed as reduction in L-DOPA oxidase activity at 0.15 mM to 0.6 mM using L-DOPA substrate by Lineweaver-Burk plot
T1 sequence (whole entry): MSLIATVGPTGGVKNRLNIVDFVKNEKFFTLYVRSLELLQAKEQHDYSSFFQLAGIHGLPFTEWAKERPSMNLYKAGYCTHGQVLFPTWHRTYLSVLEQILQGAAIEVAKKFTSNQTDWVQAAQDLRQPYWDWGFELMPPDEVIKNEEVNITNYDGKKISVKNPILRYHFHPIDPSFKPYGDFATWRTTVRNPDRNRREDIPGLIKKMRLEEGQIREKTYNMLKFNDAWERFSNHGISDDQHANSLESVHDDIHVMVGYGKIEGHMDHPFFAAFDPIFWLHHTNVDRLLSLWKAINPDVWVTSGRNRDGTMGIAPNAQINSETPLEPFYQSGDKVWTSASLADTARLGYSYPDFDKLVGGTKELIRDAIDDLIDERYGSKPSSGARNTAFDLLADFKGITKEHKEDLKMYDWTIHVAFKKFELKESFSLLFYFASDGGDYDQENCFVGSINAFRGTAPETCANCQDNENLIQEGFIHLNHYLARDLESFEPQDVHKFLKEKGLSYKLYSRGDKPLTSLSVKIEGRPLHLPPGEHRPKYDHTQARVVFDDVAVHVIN

[2] = target: T2, Tyrosinase (Agaricus bisporus, UniProt O42713)
T2 sequence (O42713 whole entry): T1 sequence (whole entry)
Description: Inhibition of mushroom tyrosinase assessed as reduction in L-DOPA oxidase activity using L-DOPA substrate at 5 uM by Dixon plot

[3] = target: T2, Tyrosinase; remark: listed apart in the source
Description: Inhibition of mushroom tyrosinase assessed as reduction in L-DOPA oxidase activity using L-DOPA substrate

| inhibition [1] | Ki [2] [µM] | IC50 [3] [µM] | SMILES |
| --- | --- | --- | --- |
| Active | 22.9 | 42.3 | COc1ccc(/C=C/C(=N\O)c2cc3ccccc3cc2O)cc1OC |
| Active | 7.82 | 19.5 | O/N=C(\C=C\c1ccncc1)c1cc2ccccc2cc1O |
| Active | 28.6 | 52.9 | COc1cc(/C=C/C(=N\O)c2cc3ccccc3cc2O)cc(OC)c1 |
| Active | 10.6 | 23 | COc1ccc(/C=C/C(=N\O)c2cc3ccccc3cc2O)c(OC)c1 |
| Active | 6.46 | 12.2 | O/N=C(\C=C\c1cccnc1)c1cc2ccccc2cc1O |
| Active | 9.4 | 21.9 | COc1ccc(OC)c(/C=C/C(=N\O)c2cc3ccccc3cc2O)c1 |
| Active | 11.1 | 20.2 | O/N=C(\C=C\c1ccccn1)c1cc2ccccc2cc1O |
